From publication PMC4515429, “Anti-Biofilm and Immunomodulatory Activities of Peptides That Inhibit Biofilms Formed by Pathogens Isolated from Cystic Fibrosis Patients” (Antibiotics, 2014)
Values after ≈ are worked out from the molar mass of the structure shown. Read-outs that look alike come from different tables or passages of the source. Where a SMILES comes first, the peptide text is derived from it. Bridges are numbered along the chain shown (N, C = ends). Where no end group is shown, it is not given here. [ ]: non-standard residue; d: D form. The star is where a group is joined. X1 = CC[C@H](C)CCCCC(=O)*; Dab = NCC[C@H](N)C(=O)O

Key:
[1] = tested on: B. ambifaria CEP0996 (VII); conditions: 18 h
Description: (§1) In addition to the wild type lab isolates Pseudomonas aeruginosa strains PAO1 and PA14, a variety of cystic fibrosis clinical isolates of P. aeruginosa and Burkholderia cepacia complex strains were utilized (Table 1). Planktonic cells from each of the P. aeruginosa and B. cepacia strains were grown in BM2 glucose or cation-adjusted Mueller-Hinton. The minimal inhibitory concentration (MIC) for peptides in brain-heart infusion (BHI) was assessed by the broth microdilution method with minor modifications for cationic peptides. […] MIC assays were performed in sterile 96-well polypropylene microtiter plates. […] The plates were incubated at 37 °C for 18 h.

[2] = tested on: B. cenocepacia 4813 (IIIa); conditions: 18 h
Description: as §1

[3] = tested on: B. cenocepacia C5424 (IIIa); conditions: 18 h
Description: as §1

[4] = tested on: B. cenocepacia CEP0055 (IIIb); conditions: 18 h
Description: as §1

[5] = tested on: B. cenocepacia CEP509 (IIIb); conditions: 18 h
Description: as §1

[6] = tested on: B. dolosa CEP0021 (VI); conditions: 18 h
Description: as §1

[7] = tested on: B. multivorans D2661 (Genomovar II); conditions: 18 h
Description: as §1

[8] = tested on: B. stabilis C6061 (IV); conditions: 18 h
Description: as §1

[9] = tested on: P. aeruginosa 1172 (Classic)
Description: as §1

[10] = tested on: P. aeruginosa 2631 (Classic)
Description: as §1

[11] = tested on: P. aeruginosa 2639 (Mucoid)
Description: as §1

[12] = tested on: P. aeruginosa 3195 (Classic)
Description: as §1

[13] = tested on: P. aeruginosa 3330 (Classic)
Description: as §1

[14] = tested on: P. aeruginosa 4020 (Classic)
Description: as §1

[15] = tested on: P. aeruginosa 4608 (Mucoid)
Description: as §1

[16] = tested on: P. aeruginosa 7632 (Classic)
Description: as §1

[17] = tested on: P. aeruginosa 7633 (Entire)
Description: as §1

[18] = tested on: P. aeruginosa C2773 (Classic)
Description: as §1

[19] = tested on: P. aeruginosa C4276 (Classic)
Description: as §1

[20] = tested on: P. aeruginosa C4278 (Mucoid)
Description: as §1

[21] = tested on: P. aeruginosa PA01; conditions: 18 h
Description: as §1

[22] = tested on: P. aeruginosa PA14
Description: as §1

[23] = tested on: P. aeruginosa; conditions: at one sixteenth the minimum inhibitory concentration (MIC); cited from earlier work
From the text: Cationic host defense (antimicrobial) peptides represent a novel alternative to conventional antibiotics. […] Similar results were subsequently shown by other groups. This encouraged t ...

[24] = tested on: planktonic cells of Burkholderia strains
Description: as §1

[25] = tested on: P. aeruginosa PA14; assay: Anti-biofilm activity, BioFlux apparatus; format: cell-based, Pseudomonas aeruginosa; conditions: 15 µg/mL peptide
[26] = tested on: monocyte chemotactic protein-1 (MCP-1) production by human peripheral blood mononuclear cells; assay: MCP-1 induction in PBMCs, sandwich ELISA; format: cell-based; conditions: 24 h; for level of MCP-1 induction at 100 µg/mL: 100 µg/mL peptide; for MCP-1 induction: 20 and 100 µg/mL peptide, cf. untreated control
Description: (§2) (A) Human peripheral blood mononuclear cells were subjected to 20 µg/mL and 100 µg/mL of HE1, HE4, HE10, HE12, and 1018 for 24 h. Monocyte chemotactic protein-1 (MCP-1) production was assessed using sandwich enzyme linked immunosorbent assay (ELISA). The level of MCP-1 induction was similar for HE1, HE4, HE10, and 1018 at 100 µg/mL; (B) LPS (20 ng/mL) was co-administered with 20 µg/mL of each of the aforementioned peptides for 24 h. The tumor necrosis factor-alpha (TNF-α) production in response to both stimulants was assessed using enzyme linked immunosorbent assay (ELISA) and compared to lipopolysaccharides (LPS) alone. […] Lactate dehydrogenase release from peripheral blood mononuclear cells (PBMCs) was measured to assess the toxicity of 20 µg/mL and 100 µg/mL of 1018 and its derivatives.
These studies were done as described previously. Briefly, human peripheral blood mononuclear cells (PBMCs) were isolated from the blood of healthy individuals obtained under University of British Columbia (UBC) human ethics approval. PBMCs were diluted to 2 × 10^6 cells/ml in RPMI-1640 medium (Gibco®, Grand Island, NY, USA) supplemented with 10% fetal bovine serum (FBS). Subsequently, 250 µL of cells were seeded in each well of a 48-well dish. […] To assess chemokine induction after 24 h, the levels of chemokine MCP-1 (CCL2) were assessed in the supernatants three times independently using a sandwich ELISA kit (BioSource International, Grand Island, NY, USA). To look at the anti-inflammatory activity of the peptides in suppressing LPS-induced TNFα, P. aeruginosa LPS was added at a final concentration of 20 ng/mL as well as peptides at 20 μg/mL or 100 μg/mL. Secretion of TNF-α was monitored by capture ELISA (eBiosciences, San Diego, CA, USA) after 24 h.

[27] = tested on: P. aeruginosa PA14; assay: Flow cell biofilm assay, confocal microscopy; format: cell-based, Pseudomonas aeruginosa; conditions: 72 h, 37 °C, inhibition and eradication conditions, Syto-9/PI confocal imaging
Description: For biofilm prevention conditions, the peptides were added to the medium from the beginning of the experiment. For eradication experiments, bacteria were allowed to develop structured 2-day-old biofilms prior to peptide and antibiotics treatment for the following 24 h.
Biofilms were grown for 72 h, in the absence or presence of the desired concentration of the different peptides, at 37 °C in flow chambers with channel dimensions of 1 by 4 by 40 mm, and then stained and examined by confocal microscopy, as described previously. For biofilm prevention studies the peptide was present in the flow-through medium throughout the biofilm growth while for eradication experiments, biofilms were allowed to grow for 2 days, before treating them with peptide for the last 24 h of the experiment.

[28] = tested on: methicillin resistant Staphylococcus aureus (MRSA); assay: Biofilm inhibition in 96-well plates, static conditions; format: cell-based; conditions: polypropylene microtiter plates, BM2, 24 h, 37 °C, crystal violet, absorbance 595 nm
Description: Figure 3 Biofilm inhibitory activity against methicillin resistant Staphylococcus aureus (MRSA) in 96-well plates. […] Statistical significance was assessed using one-way ANOVA (*, p < 0.05; ***, p < 0.001; ****, p < 0.0001).

[29] = tested on: TNF-α production by human peripheral blood mononuclear cells; assay: LPS-induced TNF-α production in PBMCs, ELISA; format: cell-based; conditions: LPS-stimulated PBMCs, Figure 4B
Description: as §2
These studies were done as described previously. Briefly, human peripheral blood mononuclear cells (PBMCs) were isolated from the blood of healthy individuals obtained under University of British Columbia (UBC) human ethics approval. […] To assess chemokine induction after 24 h, the levels of chemokine MCP-1 (CCL2) were assessed in the supernatants three times independently using a sandwich ELISA kit (BioSource International, Grand Island, NY, USA). […] Secretion of TNF-α was monitored by capture ELISA (eBiosciences, San Diego, CA, USA) after 24 h.

[30] = tested on: B. cenocepacia 4813; assay: Anti-biofilm activity of 1018 derivatives (Table 4); format: cell-based, Burkholderia cenocepacia; conditions: 15 µg/mL peptide
Description: Biofilm formation was initially analyzed using a static abiotic solid surface assay as described elsewhere [21]. Dilutions (1/100) of overnight cultures were incubated in BM2 glucose medium (62 mM potassium phosphate buffer (pH 7), 7 mM (NH4)2SO4, 2 mM MgSO4, 10 μM FeSO4, 0.4% (wt/vol) glucose, 0.5% (wt/vol) Casamino Acids) in polypropylene microtiter plates (Fisher Scientific, Waltham, MA, USA) in the presence of the different peptides for 22 h at 37 °C. Planktonic cells were removed and biofilm cells adhering to the side of the tubes were stained with crystal violet, extracted into ethanol, and the optical density at 595 nm (OD595) measured using a microtiter plate reader (Bio-Tek Instruments Inc., Winooski, VT, USA). Peptides were added at time zero (prior to adding the diluted, overnight cultures) at various concentrations, and the decrease in biofilm formation was recorded at 22 h for P. aeruginosa, Burkholderia and Methicillin-resistant Staphylococcus aureus isolates.

[31] = planktonic cells, broth microdilution, BHI, 5 × 10^5 CFU/mL, 37 °C, performed at least three times
[32] = planktonic cells, broth microdilution, BHI, 5 × 10^5 CFU/mL, 37 °C, 18 h, performed at least three times

Molecule: CC[C@H](C)[C@H](NC(=O)[C@H](CCCCN)NC(=O)[C@H](CCC(=O)O)NC(=O)[C@H](CCCCN)NC(=O)[C@H](CO)NC(=O)[C@H](CCCCN)NC(=O)[C@H](CCCNC(=N)N)NC(=O)[C@H](Cc1ccccc1)NC(=O)[C@H](Cc1ccccc1)NC(=O)[C@H](CC(=O)O)NC(=O)CNC(=O)[C@H](CC(C)C)NC(=O)[C@@H](N)CC(C)C)C(=O)NCC(=O)N[C@@H](CCCCN)C(=O)N[C@@H](CCC(=O)O)C(=O)N[C@@H](Cc1ccccc1)C(=O)N[C@@H](CCCCN)C(=O)N[C@@H](CCCNC(=N)N)C(=O)N[C@H](C(=O)N[C@H](C(=O)N[C@@H](CCC(N)=O)C(=O)N[C@@H](CCCNC(=N)N)C(=O)N[C@H](C(=O)N[C@@H](CCCCN)C(=O)N[C@@H](CC(=O)O)C(=O)N[C@@H](Cc1ccccc1)C(=O)N[C@@H](CC(C)C)C(=O)N[C@@H](CCCNC(=N)N)C(=O)N[C@@H](CC(N)=O)C(=O)N[C@@H](CC(C)C)C(=O)N[C@H](C(=O)N1CCC[C@H]1C(=O)N[C@@H](CCCNC(=N)N)C(=O)N[C@H](C(=O)N[C@@H](CCC(=O)O)C(=O)N[C@@H](CO)C(=O)O)[C@@H](C)O)C(C)C)[C@@H](C)CC)C(C)C)[C@@H](C)CC [LL-37]
- MIC [1, 31]: >512 µg/mL
- MIC [2, 31]: >256 µg/mL
- MIC [3, 31]: >256 µg/mL
- MIC [4, 31]: >512 µg/mL
- MIC [5, 31]: >512 µg/mL
- MIC [6, 31]: >512 µg/mL
- MIC [7, 31]: >512 µg/mL
- MIC [8, 31]: >512 µg/mL
- MIC [9, 32]: >128 µg/mL
- MIC [10, 32]: >256 µg/mL
- MIC [11, 32]: >128 µg/mL
- MIC [12, 32]: 64 µg/mL (≈ 14.2 µM)
- MIC [13, 32]: >128 µg/mL
- MIC [14, 32]: >128 µg/mL
- MIC [15, 32]: >128 µg/mL
- MIC [16, 32]: 256 µg/mL (≈ 57 µM)
- MIC [17, 32]: >128 µg/mL
- MIC [18, 32]: 256 µg/mL (≈ 57 µM)
- MIC [19, 32]: 256 µg/mL (≈ 57 µM)
- MIC [20, 32]: >256 µg/mL
- MIC [21, 31]: 32 µg/mL (≈ 7.12 µM)
- MIC [22, 32]: 32 µg/mL (≈ 7.12 µM)
- decrease in biofilm formation [23]: 50%

Molecule: CC[C@H](C)CCCCC(=O)N[C@@H](CCN)C(=O)N[C@H](C(=O)N[C@@H](CCN)C(=O)N[C@H]1CCNC(=O)[C@H]([C@@H](C)O)NC(=O)[C@H](CCN)NC(=O)[C@H](CCN)NC(=O)[C@H](CC(C)C)NC(=O)[C@@H](Cc2ccccc2)NC(=O)[C@H](CCN)NC1=O)[C@@H](C)O [Polymyxin B] (X1-[Dab]T[Dab][Dab][Dab][dF]L[Dab][Dab]T; lactam 4-C (inferred); N-terminus assumed)
- MIC [1]: >128 µg/mL
- MIC [2]: >128 µg/mL
- MIC [3]: >128 µg/mL
- MIC [4]: >128 µg/mL
- MIC [5]: >128 µg/mL
- MIC [6]: >128 µg/mL
- MIC [7]: >128 µg/mL
- MIC [8]: >128 µg/mL
- MIC ([9]; 1172 (Classic, 18 h)): 2 µg/mL (≈ 1.66 µM)
- MIC ([10]; 2631 (Classic, 18 h)): 4 µg/mL (≈ 3.32 µM)
- MIC ([11]; 2639 (Mucoid, 18 h)): 2 µg/mL (≈ 1.66 µM)
- MIC ([12]; 3195 (Classic, 18 h)): 2 µg/mL (≈ 1.66 µM)
- MIC ([13]; 3330 (Classic, 18 h)): 2 µg/mL (≈ 1.66 µM)
- MIC ([14]; 4020 (Classic, 18 h)): 2 µg/mL (≈ 1.66 µM)
- MIC ([15]; 4608 (Mucoid, 18 h)): 2 µg/mL (≈ 1.66 µM)
- MIC ([16]; 7632 (Classic, 18 h)): 2 µg/mL (≈ 1.66 µM)
- MIC ([17]; 7633 (Entire, 18 h)): 2 µg/mL (≈ 1.66 µM)
- MIC ([18]; C2773 (Classic, 18 h)): 4 µg/mL (≈ 3.32 µM)
- MIC ([19]; C4276 (Classic, 18 h)): 2 µg/mL (≈ 1.66 µM)
- MIC ([20]; C4278 (Mucoid, 18 h)): 2 µg/mL (≈ 1.66 µM)
- MIC [21]: 2 µg/mL (≈ 1.66 µM)
- MIC ([22]; PA14, 18 h): 2 µg/mL (≈ 1.66 µM)

Molecule: KRWWKWIRW-NH2 (C-terminus assumed) [HHC-10]
- MIC against planktonic cells of Burkholderia strains [24]: > 256 µg/mL

Molecule: KRWWKWWRR-NH2 (C-terminus assumed) [HHC-36]
- MIC against planktonic cells of Burkholderia strains [24]: > 256 µg/mL

Molecule: RFKRVARVIW [HE12]
- MIC ([22]; PA14, 18 h): 80 µg/mL

Molecule: RRWIRVAVILRV [HE1]
- Anti-Biofilm Activity (% Decrease in Biofilm) [25]: 93%
- level of MCP-1 induction at 100 µg/mL [26]: similar
- MCP-1 induction [26]: significantly induced MCP-1

Molecule: VRLI--VRIWRR [HE10, 1018 derivative, truncated to remove hydrophobic patch]
- anti-biofilm activity in flow cells [27]: strong anti-biofilm activity comparable with that of 1018
- biofilm inhibitory activity against MRSA compared to 1018 [28]: notably more active
- level of MCP-1 induction at 100 µg/mL [26]: similar
- MCP-1 induction [26]: significantly induced MCP-1
- suppression of TNF-α production [29]: strongly suppressing the production of TNF-α

Molecule: VRLIRAVRAWRV [HE2, 1018 derivative, break hydrophobicity; maintain charge]
- Anti-Biofilm Activity (% Decrease in Biofilm) [25]: 42%
- Anti-Biofilm Activity (% Decrease in Biofilm) [30]: 24%

Molecule: VRLIWAVRIWRR [HE4]
- MIC ([22]; PA14, 18 h): 80 µg/mL

Molecule: VRWARVARILRV [HE3, 1018 derivative, reverse of HE2]
- Anti-Biofilm Activity (% Decrease in Biofilm) [25]: 31%
- Anti-Biofilm Activity (% Decrease in Biofilm) [30]: 21%
